Laboratory results from the supplement of paper PMC10307832.

How the values were obtained:
Test in all cases: relative viability (nuclei count vs DMSO), 5 days (fraction); higher = more cells survive
[1] = tested on: NCI-H2228
How it was run: (§1)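 Relative viability equals treated-well nuclei counts divided by vehicle-well nuclei counts. Counts came from 4× images of lung cancer cell lines grown in 1536-well plates for 5 days after pin-tool dosing on the day after seeding. Dosing used one drug alone or a fixed anchor-drug dose plus five library-drug doses (not always all listed) in √10 steps, and values are medians of duplicate plates.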

[2] = tested on: PC-14
How it was run: as §1

[3] = tested on: NCI-H460
How it was run: as §1

[4] = tested on: LCLC-103H
How it was run: as §1

[5] = tested on: NCI-H23
How it was run: as §1

[6] = tested on: NCI-H1650
How it was run: as §1

[7] = tested on: HCC-44
How it was run: as §1

[8] = tested on: LK-2
How it was run: as §1

[9] = tested on: LC-2-ad
How it was run: as §1

[10] = tested on: LU99A
How it was run: as §1

[11] = tested on: SW 1573
How it was run: as §1

[12] = tested on: 201T
How it was run: as §1

[13] = tested on: NCI-H596
How it was run: as §1

[14] = tested on: COR-L23
How it was run: as §1

[15] = tested on: SW 900
How it was run: as §1

[16] = tested on: LCLC-97TM1
How it was run: as §1

[17] = tested on: NCI-H1563
How it was run: as §1

[18] = tested on: A-427
How it was run: as §1

[19] = tested on: NCI-H2347
How it was run: as §1

[20] = tested on: NCI-H1793
How it was run: as §1

[21] = tested on: NCI-H727
How it was run: as §1

[22] = tested on: H3255
How it was run: as §1

COc1cc2nccc(Oc3ccc(NC(=O)Nc4cc(C)on4)c(Cl)c3)c2cc1OC [Tivozanib] + COc1cccc2cc(-c3nc([C@H]4CC[C@H](C(=O)O)CC4)n4ncnc(N)c34)[nH]c12 [OSI-027] (partner 0.5 µM) was tested, and the relative viability ([1]; first compound 0.005 µM) was 0.492, the relative viability ([1]; first compound 0.01581 µM) was 0.54 and the relative viability ([1]; first compound 0.05 µM) was 0.615. It also gave a relative viability ([1]; first compound 0.1581 µM) of 0.488, a relative viability ([1]; first compound 0.5 µM) of 0.485 and a relative viability ([2]; first compound 0.005 µM) of 0.695. For the same compound, the relative viability ([2]; first compound 0.01581 µM) was 0.928, the relative viability ([2]; first compound 0.05 µM) was 0.83 and the relative viability ([2]; first compound 0.1581 µM) was 0.664. The relative viability ([2]; first compound 0.5 µM) was 0.664, the relative viability ([3]; first compound 0.005 µM) was 0.626 and the relative viability ([3]; first compound 0.01581 µM) was 0.692. It also gave a relative viability ([3]; first compound 0.05 µM) of 0.727, a relative viability ([3]; first compound 0.1581 µM) of 0.622 and a relative viability ([3]; first compound 0.5 µM) of 0.578. The relative viability ([4]; first compound 0.005 µM) was 0.475, the relative viability ([4]; first compound 0.01581 µM) was 0.481 and the relative viability ([4]; first compound 0.05 µM) was 0.423. For the same compound, the relative viability ([4]; first compound 0.1581 µM) was 0.369, the relative viability ([4]; first compound 0.5 µM) was 0.498 and the relative viability ([5]; first compound 0.005 µM) was 0.578. It also gave a relative viability ([5]; first compound 0.01581 µM) of 0.595, a relative viability ([5]; first compound 0.05 µM) of 0.671 and a relative viability ([5]; first compound 0.1581 µM) of 0.355. For the same compound, the relative viability ([5]; first compound 0.5 µM) was 0.367, the relative viability ([6]; first compound 0.005 µM) was 0.524 and the relative viability ([6]; first compound 0.01581 µM) was 0.746. The relative viability ([6]; first compound 0.05 µM) was 0.709, the relative viability ([6]; first compound 0.1581 µM) was 0.591 and the relative viability ([6]; first compound 0.5 µM) was 0.558. It also gave a relative viability ([7]; first compound 0.005 µM) of 0.483, a relative viability ([7]; first compound 0.01581 µM) of 0.544 and a relative viability ([7]; first compound 0.05 µM) of 0.485. For the same compound, the relative viability ([7]; first compound 0.1581 µM) was 0.41, the relative viability ([7]; first compound 0.5 µM) was 0.464 and the relative viability ([8]; first compound 0.005 µM) was 0.223. For the same compound, the relative viability ([8]; first compound 0.01581 µM) was 0.196, the relative viability ([8]; first compound 0.05 µM) was 0.244 and the relative viability ([8]; first compound 0.1581 µM) was 0.172. It also gave a relative viability ([8]; first compound 0.5 µM) of 0.194, a relative viability ([9]; first compound 0.005 µM) of 0.784 and a relative viability ([9]; first compound 0.01581 µM) of 0.834. The relative viability ([9]; first compound 0.05 µM) was 0.812, the relative viability ([9]; first compound 0.1581 µM) was 0.71 and the relative viability ([9]; first compound 0.5 µM) was 0.512. The relative viability ([10]; first compound 0.005 µM) was 0.292, the relative viability ([10]; first compound 0.01581 µM) was 0.302 and the relative viability ([10]; first compound 0.05 µM) was 0.301. The relative viability ([10]; first compound 0.1581 µM) was 0.268, the relative viability ([10]; first compound 0.5 µM) was 0.238 and the relative viability ([11]; first compound 0.005 µM) was 0.575. It also gave a relative viability ([11]; first compound 0.01581 µM) of 0.633, a relative viability ([11]; first compound 0.05 µM) of 0.68 and a relative viability ([11]; first compound 0.1581 µM) of 0.366. For the same compound, the relative viability ([11]; first compound 0.5 µM) was 0.447, the relative viability ([12]; first compound 0.005 µM) was 0.777 and the relative viability ([12]; first compound 0.01581 µM) was 0.798. For the same compound, the relative viability ([12]; first compound 0.05 µM) was 0.36, the relative viability ([12]; first compound 0.1581 µM) was 0.572 and the relative viability ([12]; first compound 0.5 µM) was 0.709. For the same compound, the relative viability ([13]; first compound 0.005 µM) was 0.681, the relative viability ([13]; first compound 0.01581 µM) was 0.596 and the relative viability ([13]; first compound 0.05 µM) was 0.866. The relative viability ([13]; first compound 0.5 µM) was 0.59, the relative viability ([14]; first compound 0.005 µM) was 0.74 and the relative viability ([14]; first compound 0.01581 µM) was 0.715. The relative viability ([14]; first compound 0.05 µM) was 0.799, the relative viability ([14]; first compound 0.1581 µM) was 0.617 and the relative viability ([14]; first compound 0.5 µM) was 0.647. The relative viability ([15]; first compound 0.005 µM) was 0.556, the relative viability ([15]; first compound 0.01581 µM) was 0.501 and the relative viability ([15]; first compound 0.05 µM) was 0.641. The relative viability ([15]; first compound 0.1581 µM) was 0.301, the relative viability ([15]; first compound 0.5 µM) was 0.518 and the relative viability ([16]; first compound 0.005 µM) was 0.52. For the same compound, the relative viability ([16]; first compound 0.01581 µM) was 0.573, the relative viability ([16]; first compound 0.05 µM) was 0.636 and the relative viability ([16]; first compound 0.1581 µM) was 0.476. The relative viability ([16]; first compound 0.5 µM) was 0.455, the relative viability ([17]; first compound 0.005 µM) was 0.751 and the relative viability ([17]; first compound 0.01581 µM) was 0.773. The relative viability ([17]; first compound 0.05 µM) was 0.784, the relative viability ([17]; first compound 0.1581 µM) was 0.718 and the relative viability ([17]; first compound 0.5 µM) was 0.817. It also gave a relative viability ([18]; first compound 0.005 µM) of 0.458, a relative viability ([18]; first compound 0.01581 µM) of 0.492 and a relative viability ([18]; first compound 0.05 µM) of 0.552. It also gave a relative viability ([18]; first compound 0.1581 µM) of 0.434, a relative viability ([18]; first compound 0.5 µM) of 0.368 and a relative viability ([19]; first compound 0.01581 µM) of 0.373. The relative viability ([19]; first compound 0.05 µM) was 0.262, the relative viability ([19]; first compound 0.5 µM) was 0.408 and the relative viability ([20]; first compound 0.005 µM) was 0.225. For the same compound, the relative viability ([20]; first compound 0.01581 µM) was 0.219, the relative viability ([20]; first compound 0.05 µM) was 0.344 and the relative viability ([20]; first compound 0.1581 µM) was 0.249. It also gave a relative viability ([20]; first compound 0.5 µM) of 0.235, a relative viability ([21]; first compound 0.005 µM) of 0.501 and a relative viability ([21]; first compound 0.01581 µM) of 0.799. For the same compound, the relative viability ([21]; first compound 0.05 µM) was 0.688, the relative viability ([21]; first compound 0.1581 µM) was 0.434 and the relative viability ([21]; first compound 0.5 µM) was 0.68. For the same compound, the relative viability ([22]; first compound 0.005 µM) was 0.571, the relative viability ([22]; first compound 0.01581 µM) was 0.597 and the relative viability ([22]; first compound 0.05 µM) was 0.634. The relative viability ([22]; first compound 0.1581 µM) was 0.47 and the relative viability ([22]; first compound 0.5 µM) was 0.556.
